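Results reflect a 48-hour exposure of cells in 96-well plates to compound at five concentrations. GI50: concentration for 50% inhibition of growth. TGI marks complete inhibition of growth.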
Legend:
Assay in all cases: NCI tumour cell line growth inhibition, 48 h
[1] = system: 786-0 renal
[2] = system: A549 NSCLC
[3] = system: ACHN renal
[4] = system: CAKI-1 renal
[5] = system: CCRF-CEM leukemia
[6] = system: COLO 205 colon
[7] = system: EKVX NSCLC
[8] = system: HCC-2998 colon
[9] = system: HCT-116 colon
[10] = system: HCT-15 colon
[11] = system: HL-60(TB) leukemia
[12] = system: HOP-92 NSCLC
[13] = system: HT29 colon
[14] = system: IGROV1 ovarian
[15] = system: K-562 leukemia
[16] = system: KM12 colon
[17] = system: KM20L2 colon
[18] = system: LOX IMVI melanoma
[19] = system: M14 melanoma
[20] = system: MALME-3M melanoma
[21] = system: MOLT-4 leukemia
[22] = system: NCI-H226 lung
[23] = system: NCI-H23 lung
[24] = system: NCI-H460 lung
[25] = system: NCI-H522 lung
[26] = system: OVCAR-3 ovarian
[27] = system: OVCAR-4 ovarian
[28] = system: OVCAR-5 ovarian
[29] = system: OVCAR-8 ovarian
[30] = system: RPMI-8226 leukemia
[31] = system: RXF 393 renal
[32] = system: RXF-631 renal
[33] = system: SF-268 CNS
[34] = system: SF-295 CNS
[35] = system: SF-539 CNS
[36] = system: SK-MEL-28 melanoma
[37] = system: SK-MEL-5 melanoma
[38] = system: SK-OV-3 ovarian
[39] = system: SN12C renal
[40] = system: SNB-19 CNS
[41] = system: SNB-75 CNS
[42] = system: SR leukemia
[43] = system: SW-620 colon
[44] = system: TK-10 renal
[45] = system: U251 CNS
[46] = system: UACC-257 melanoma
[47] = system: UACC-62 melanoma
[48] = system: UO-31 renal
[49] = system: A498 renal
[50] = system: DLD-1 colon
[51] = system: DMS 114 small cell lung
[52] = system: DMS 273 small cell lung
[53] = system: HOP-18 NSCLC
[54] = system: HOP-62 NSCLC
[55] = system: LXFL 529 NSCLC
[56] = system: M19-MEL melanoma
[57] = system: SK-MEL-2 melanoma
[58] = system: SNB-78 CNS
[59] = system: XF 498 CNS

What does the source list for Nc1ccccc1Nc1ccccc1C(=O)[O-].Nc1ccccc1Nc1ccccc1C(=O)[O-].[Ni+2]?
TGI [1]: > 100 µM; TGI [2]: > 100 µM; TGI [3]: > 100 µM; TGI [4]: > 100 µM; TGI [5]: > 100 µM; TGI [6]: > 100 µM; TGI [7]: > 100 µM; TGI [8]: > 100 µM; TGI [9]: > 100 µM; TGI [10]: > 100 µM; GI50 [11]: > 100 µM; TGI [11]: > 100 µM; GI50 [12]: > 100 µM; TGI [12]: > 100 µM; TGI [13]: > 100 µM; TGI [14]: > 100 µM; TGI [15]: > 100 µM; TGI [16]: > 100 µM; TGI [17]: > 100 µM; GI50 [18]: > 100 µM; TGI [18]: > 100 µM; TGI [19]: > 100 µM; TGI [20]: > 100 µM; TGI [21]: > 100 µM; GI50 [22]: > 100 µM; TGI [22]: > 100 µM; TGI [23]: > 100 µM; TGI [24]: > 100 µM; TGI [25]: 86 µM; TGI [26]: > 100 µM; GI50 [27]: 67.8 µM; TGI [27]: > 100 µM; TGI [28]: > 100 µM; TGI [29]: > 100 µM; TGI [30]: > 100 µM; GI50 [31]: 60.1 µM; TGI [31]: > 100 µM; GI50 [32]: > 100 µM; TGI [32]: > 100 µM; TGI [33]: > 100 µM; TGI [34]: > 100 µM; TGI [35]: > 100 µM; TGI [36]: > 100 µM; TGI [37]: > 100 µM; TGI [38]: > 100 µM; TGI [39]: > 100 µM; TGI [40]: > 100 µM; TGI [41]: > 100 µM; GI50 [42]: > 100 µM; TGI [42]: > 100 µM; TGI [43]: > 100 µM; TGI [44]: > 100 µM; TGI [45]: > 100 µM; TGI [46]: > 100 µM; TGI [47]: > 100 µM; TGI [48]: > 100 µM

What does the source list for COC[C@@H]1[C@H]2OC(C)(C)O[C@H]2C(=O)N1C(=O)c1ccc(OC)cc1?
TGI [1]: > 100 µM; TGI [49]: > 100 µM; TGI [2]: > 100 µM; TGI [3]: > 100 µM; TGI [4]: > 100 µM; TGI [5]: > 100 µM; TGI [6]: > 100 µM; TGI [50]: > 100 µM; TGI [51]: > 100 µM; TGI [52]: > 100 µM; TGI [7]: > 100 µM; TGI [8]: > 100 µM; TGI [9]: > 100 µM; TGI [10]: > 100 µM; TGI [11]: > 100 µM; TGI [53]: > 100 µM; TGI [54]: > 100 µM; TGI [12]: > 100 µM; TGI [13]: > 100 µM; TGI [14]: > 100 µM; TGI [15]: > 100 µM; TGI [16]: > 100 µM; TGI [17]: > 100 µM; TGI [18]: > 100 µM; TGI [55]: > 100 µM; TGI [19]: > 100 µM; TGI [56]: > 100 µM; TGI [20]: > 100 µM; TGI [21]: > 100 µM; TGI [22]: > 100 µM; TGI [23]: > 100 µM; TGI [24]: > 100 µM; TGI [25]: > 100 µM; TGI [26]: > 100 µM; TGI [27]: > 100 µM; TGI [28]: > 100 µM; TGI [29]: > 100 µM; TGI [30]: > 100 µM; TGI [31]: > 100 µM; TGI [33]: > 100 µM; TGI [34]: > 100 µM; TGI [35]: > 100 µM; TGI [57]: > 100 µM; TGI [36]: > 100 µM; TGI [37]: > 100 µM; TGI [38]: > 100 µM; TGI [39]: > 100 µM; TGI [40]: > 100 µM; TGI [41]: > 100 µM; TGI [58]: > 100 µM; TGI [42]: > 100 µM; TGI [43]: > 100 µM; TGI [44]: > 100 µM; TGI [45]: > 100 µM; TGI [46]: > 100 µM; TGI [47]: > 100 µM; TGI [48]: > 100 µM; TGI [59]: > 100 µM

Which TGI [1] does the source give for NC(=O)c1cn(C2OC(CO)C(O)C2O)c(=O)[nH]c1=O (stereo not given) here?
The TGI was > 100 µM.

What about the TGI [49] of the same compound?
Its TGI is > 100 µM.

And the TGI [2]?
Its TGI is > 100 µM.

What about the TGI [3] of the same compound?
Its TGI is > 100 µM.

And the TGI [4]?
Its TGI is > 100 µM.

What about the TGI [5] of the same compound?
Its TGI is > 100 µM.

And the TGI [6]?
The TGI was > 100 µM.

What about the TGI [50] of the same compound?
Its TGI is > 100 µM.

And the TGI [51]?
The TGI was > 100 µM.

And the TGI [52]?
The TGI was > 100 µM.

What about the TGI [7] of the same compound?
Its TGI is > 100 µM.

What about the TGI [9] of the same compound?
Its TGI is > 100 µM.

And the TGI [10]?
Its TGI is > 100 µM.

And the TGI [11]?
The TGI was > 100 µM.

And the TGI [54]?
The TGI was > 100 µM.

And the TGI [12]?
The TGI was > 100 µM.

And the TGI [13]?
Its TGI is > 100 µM.

What about the TGI [14] of the same compound?
Its TGI is > 100 µM.

And the TGI [15]?
The TGI was > 100 µM.

What about the TGI [16] of the same compound?
Its TGI is > 100 µM.

And the TGI [18]?
The TGI was > 100 µM.

And the TGI [55]?
The TGI was > 100 µM.

What about the TGI [19] of the same compound?
The TGI was > 100 µM.

What about the TGI [56] of the same compound?
Its TGI is > 100 µM.

And the TGI [21]?
Its TGI is > 100 µM.

And the TGI [22]?
Its TGI is > 100 µM.

And the TGI [23]?
The TGI was > 100 µM.

What about the TGI [24] of the same compound?
Its TGI is > 100 µM.

And the TGI [25]?
Its TGI is > 100 µM.

And the TGI [26]?
The TGI was > 100 µM.

What about the TGI [27] of the same compound?
The TGI was > 100 µM.

And the TGI [28]?
The TGI was > 100 µM.

What about the TGI [29] of the same compound?
The TGI was > 100 µM.

What about the TGI [30] of the same compound?
Its TGI is > 100 µM.

What about the TGI [32] of the same compound?
Its TGI is > 100 µM.

What about the TGI [33] of the same compound?
The TGI was > 100 µM.

What about the TGI [34] of the same compound?
The TGI was > 100 µM.

What about the TGI [35] of the same compound?
Its TGI is > 100 µM.

And the TGI [57]?
The TGI was > 100 µM.

And the TGI [36]?
Its TGI is > 100 µM.

What about the TGI [37] of the same compound?
The TGI was > 100 µM.

What about the TGI [38] of the same compound?
Its TGI is > 100 µM.

What about the TGI [41] of the same compound?
The TGI was > 100 µM.

What about the TGI [58] of the same compound?
Its TGI is > 100 µM.

And the TGI [42]?
Its TGI is > 100 µM.

What about the TGI [43] of the same compound?
The TGI was > 100 µM.

What about the TGI [44] of the same compound?
Its TGI is > 100 µM.

What about the TGI [45] of the same compound?
The TGI was > 100 µM.

What about the TGI [46] of the same compound?
The TGI was > 100 µM.

What about the TGI [47] of the same compound?
Its TGI is > 100 µM.

What about the TGI [48] of the same compound?
Its TGI is > 100 µM.
